In brackets after ≈: the same amount, converted by molar mass.
What was measured:
Test in all cases: MIC and MBC testing, broth microdilution
E. faecium ATCC 35667 = assay type: cell-based, Enterococcus faecium; conditions: Enterococcus faecium, ATCC35667, E. faecium ATCC 35667; for MIC: 18 h, read-out: MIC; for MBC: read-out: MBC
Source text: (§1) The minimum inhibitory concentrations (MICs) and minimum bactericidal concentrations (MBCs) of the synthesized compounds effective against ESKAPE strains, S. aureus clinical isolates, and MRSA were investigated by the broth dilution method. Levofloxacin is a broad-spectrum antibacterial agent that is widely used in the treatment of ESKAPE infections. Therefore, levofloxacin was selected as the positive control for the preliminary activity screening. DMSO (0.1%) was selected as the negative control.
(§2) The minimum inhibitory concentration (MIC) of all synthesized compounds was tested by the broth microdilution method. In brief, compounds dissolved in DMSO were diluted twice continuously in a 96-well plate with MH broth. The ESKAPE pathogens (E. coli ATCC 25922, S. aureus ATCC 29213, K. pneumoniae ATCC 700603, A. baumannii ATCC 19606, P. aeruginosa ATCC 27853, and E. faecium ATCC 35667), clinical S. aureus isolates (LMY45, LMY46, LMY47, and LMY48) and methicillin-resistant Staphylococcus aureus (MRSA-1 and MRSA-2) were cultured in MH broth to logarithmic growth phase and then diluted to 1 × 10^6 CFU/mL in MH broth. Subsequently, the diluted bacterial solution was mixed with the diluted compound solution in a 96-well plate and incubated at 37 °C for a duration of 18 h. The MIC of the compounds was recorded as the lowest concentration at which no visible growth was observed. […] Each concentration was replicated thrice.

S. aureus ATCC 29213 = assay type: cell-based, Staphylococcus aureus; conditions: Staphylococcus aureus, ATCC29213, S. aureus ATCC 29213; for MIC: 18 h, read-out: MIC; for MBC: read-out: MBC
Source text: as §1, §2

[1] = system: K. pneumoniae ATCC 700603; assay type: cell-based, Klebsiella pneumoniae; conditions: Klebsiella pneumoniae; for MIC: ATCC700603, 18 h, read-out: MIC; for MBC: ATCC700603, read-out: MBC
Source text: as §1, §2

A. baumannii ATCC 19606 = assay type: cell-based, Acinetobacter baumannii; conditions: Acinetobacter baumannii; for MIC: ATCC19606, 18 h, read-out: MIC; for MBC: ATCC19606, read-out: MBC
Source text: as §1, §2

P. aeruginosa ATCC 27853 = assay type: cell-based, Pseudomonas aeruginosa; conditions: Pseudomonas aeruginosa; for MIC: ATCC27853, 18 h, read-out: MIC; for MBC: ATCC27853, read-out: MBC
Source text: as §1, §2

E. coli ATCC 25922 = assay type: cell-based, Escherichia coli; conditions: Escherichia coli; for MIC: ATCC25922, 18 h, read-out: MIC; for MBC: ATCC25922, read-out: MBC
Source text: as §1, §2

MRSA-1 = assay type: cell-based, Staphylococcus aureus; conditions: Staphylococcus aureus, MRSA-1; for MIC: 18 h, read-out: MIC; for MBC: read-out: MBC
Description: (§3) Furthermore, the MBC values of the compounds were detected.
as §2, with “h.” for “h. The MIC of the compounds was recorded as the lowest concentration at which no visible growth was observed.”

MRSA-2 = assay type: cell-based, Staphylococcus aureus; conditions: Staphylococcus aureus, MRSA-2; for MIC: 18 h, read-out: MIC; for MBC: read-out: MBC
Description: as §3
as §2, with “h.” for “h. The MIC of the compounds was recorded as the lowest concentration at which no visible growth was observed.”

[2] = system: clinical S. aureus isolate LMY45; assay type: cell-based, Staphylococcus aureus; conditions: Staphylococcus aureus, LMY45; for MIC: 18 h, read-out: MIC; for MBC: read-out: MBC
Description: as §3
as §2, with “h.” for “h. The MIC of the compounds was recorded as the lowest concentration at which no visible growth was observed.”

[3] = system: clinical S. aureus isolate LMY46; assay type: cell-based, Staphylococcus aureus; conditions: Staphylococcus aureus, LMY46; for MIC: 18 h, read-out: MIC; for MBC: read-out: MBC
Description: as §3
as §2, with “h.” for “h. The MIC of the compounds was recorded as the lowest concentration at which no visible growth was observed.”

[4] = system: clinical S. aureus isolate LMY47; assay type: cell-based, Staphylococcus aureus; conditions: Staphylococcus aureus, LMY47; for MIC: 18 h, read-out: MIC; for MBC: read-out: MBC
Description: as §3
as §2, with “h.” for “h. The MIC of the compounds was recorded as the lowest concentration at which no visible growth was observed.”

[5] = system: clinical S. aureus isolate LMY48; assay type: cell-based, Staphylococcus aureus; conditions: Staphylococcus aureus, LMY48; for MIC: 18 h, read-out: MIC; for MBC: read-out: MBC
Description: as §3
as §2, with “h.” for “h. The MIC of the compounds was recorded as the lowest concentration at which no visible growth was observed.”

| MIC (E. faecium ATCC 35667) [µg/mL] | MIC (S. aureus ATCC 29213) [µg/mL] | MIC [1] [µg/mL] | MIC (A. baumannii ATCC 19606) [µg/mL] | MIC (P. aeruginosa ATCC 27853) [µg/mL] | MIC (E. coli ATCC 25922) [µg/mL] | MIC (MRSA-1) [µg/mL] | MIC (MRSA-2) [µg/mL] | MIC [2] [µg/mL] | MIC [3] [µg/mL] | MIC [4] [µg/mL] | SMILES | MBC (E. faecium ATCC 35667) [µg/mL] | MBC (S. aureus ATCC 29213) [µg/mL] | MBC [1] [µg/mL] | MBC (A. baumannii ATCC 19606) [µg/mL] | MBC (E. coli ATCC 25922) [µg/mL] | MBC (MRSA-1) [µg/mL] | MBC (MRSA-2) [µg/mL] | MBC [2] [µg/mL] | MBC [3] [µg/mL] | other results |
| --- | --- | --- | --- | --- | --- | --- | --- | --- | --- | --- | --- | --- | --- | --- | --- | --- | --- | --- | --- | --- | --- |
| 2 (≈ 5.16 µM) | 4 (≈ 10.3 µM) | 32 (≈ 82.6 µM) | 8 (≈ 20.7 µM) | > 32 | 4 (≈ 10.3 µM) | 1 (≈ 2.58 µM) | 2 (≈ 5.16 µM) | 2 (≈ 5.16 µM) | 2 (≈ 5.16 µM) | ≤ 1 | [H]/N=C(\N)NN=C1CCCc2cc(OCc3ccccc3Br)ccc21 [Compound 1Q, (E)-2-(6-((2-bromobenzyl)oxy)-3,4-dihydronaphthalen-1(2H)-ylidene)hydrazine-1-carboximidamide] | 8 (≈ 20.7 µM) | 8 (≈ 20.7 µM) | 32 (≈ 82.6 µM) | 8 (≈ 20.7 µM) | 4 (≈ 10.3 µM) | 8 (≈ 20.7 µM) | 8 (≈ 20.7 µM) | 4 (≈ 10.3 µM) | 4 (≈ 10.3 µM) | MBC [4]: 4 µg/mL (≈ 10.3 µM); MIC [5]: 2 µg/mL (≈ 5.16 µM); MBC [5]: 2 µg/mL (≈ 5.16 µM) |
| 4 (≈ 11.6 µM) | 2 (≈ 5.81 µM) | 32 (≈ 92.9 µM) | 8 (≈ 23.2 µM) | > 32 | 8 (≈ 23.2 µM) | 2 (≈ 5.81 µM) | 2 (≈ 5.81 µM) | 2 (≈ 5.81 µM) | 2 (≈ 5.81 µM) | 2 (≈ 5.81 µM) | [H]/N=C(\N)NN=C1CCCc2cc(OCc3cc(F)ccc3F)ccc21 [Compound 1E, (E)-2-(6-((2,5-difluorobenzyl)oxy)-3,4-dihydronaphthalen-1(2H)-ylidene)hydrazine-1-carboximidamide] | 16 (≈ 46.5 µM) | 16 (≈ 46.5 µM) | 32 (≈ 92.9 µM) | 8 (≈ 23.2 µM) | 8 (≈ 23.2 µM) | 32 (≈ 92.9 µM) | 8 (≈ 23.2 µM) | 4 (≈ 11.6 µM) | 8 (≈ 23.2 µM) | MBC [4]: 8 µg/mL (≈ 23.2 µM); MIC [5]: 2 µg/mL (≈ 5.81 µM); MBC [5]: 2 µg/mL (≈ 5.81 µM) |
| 2 (≈ 5.31 µM) | 2 (≈ 5.31 µM) | 16 (≈ 42.5 µM) | 8 (≈ 21.3 µM) | 16 (≈ 42.5 µM) | 4 (≈ 10.6 µM) | 1 (≈ 2.66 µM) | 2 (≈ 5.31 µM) | 2 (≈ 5.31 µM) | 2 (≈ 5.31 µM) | 2 (≈ 5.31 µM) | [H]/N=C(\N)NN=C1CCCc2cc(OCc3ccc(C(F)(F)F)cc3)ccc21 [Compound 1J, (E)-2-(6-((4-(trifluoromethyl)benzyl)oxy)-3,4-dihydronaphthalen-1(2H)-ylidene)hydrazine-1-carboximidamide] | 4 (≈ 10.6 µM) | 16 (≈ 42.5 µM) | 32 (≈ 85 µM) | 8 (≈ 21.3 µM) | 4 (≈ 10.6 µM) | 8 (≈ 21.3 µM) | 32 (≈ 85 µM) | 2 (≈ 5.31 µM) | 16 (≈ 42.5 µM) | MBC (P. aeruginosa ATCC 27853): > 32 µg/mL; MBC [4]: 4 µg/mL (≈ 10.6 µM); MIC [5]: 2 µg/mL (≈ 5.31 µM); MBC [5]: 2 µg/mL (≈ 5.31 µM) |
| 4 (≈ 12.3 µM) | 4 (≈ 12.3 µM) | 16 (≈ 49 µM) | 8 (≈ 24.5 µM) | 32 (≈ 98 µM) | 8 (≈ 24.5 µM) | 2 (≈ 6.13 µM) | 2 (≈ 6.13 µM) | 2 (≈ 6.13 µM) | 2 (≈ 6.13 µM) | 2 (≈ 6.13 µM) | [H]/N=C(\N)NN=C1CCCc2cc(OCc3ccccc3F)ccc21 [Compound 1A, (E)-2-(6-((2-fluorobenzyl)oxy)-3,4-dihydronaphthalen-1(2H)-ylidene)hydrazine-1-carboximidamide] | 16 (≈ 49 µM) | 16 (≈ 49 µM) | 16 (≈ 49 µM) | 16 (≈ 49 µM) | 8 (≈ 24.5 µM) | 16 (≈ 49 µM) | 8 (≈ 24.5 µM) | 4 (≈ 12.3 µM) | 8 (≈ 24.5 µM) | MBC (P. aeruginosa ATCC 27853): > 32 µg/mL; MBC [4]: 8 µg/mL (≈ 24.5 µM); MIC [5]: 2 µg/mL (≈ 6.13 µM); MBC [5]: 4 µg/mL (≈ 12.3 µM) |

From paper PMC12250302, “Synthesis, Antimicrobial Activities, and Model of Action of Novel Tetralone Derivatives Containing Aminoguanidinium Moiety” (International Journal of Molecular Sciences, 2025)
